Non-standard residues stand in square brackets, D forms with d. Residues, ends and D or L forms follow the SMILES beside them. *: point of attachment. Phe(4-CH2SO3H) = N[C@@H](Cc1ccc(CS(=O)(=O)O)cc1)C(=O)O; X1 = [N-]=[N+]=NCCOCCOCC*
Columns and labels:
gp120-CD4 = gp120-CD4 (Human immunodeficiency virus type 1 group M subtype B, UniProt P35961); type: binding, HIV-1; settings: 1H NMR; 40:1 peptide:gp120-CD4

## CC[C@H](C)[C@H](NC(=O)[C@H](CC(=O)O)NC(=O)[C@H](Cc1ccc(CS(=O)(=O)O)cc1)NC(=O)[C@@H](NC(=O)[C@@H]1CCCN1C(=O)[C@H](CO)NC(=O)[C@H](CO)NC(=O)[C@@H](NC(=O)[C@H](CCC(N)=O)NC(=O)[C@H](Cc1ccc(CS(=O)(=O)O)cc1)NC(=O)[C@@H](N)CC(=O)O)C(C)C)[C@@H](C)CC)C(=O)N[C@@H](CC(N)=O)C(=O)N[C@@H](Cc1ccc(CS(=O)(=O)O)cc1)C(=O)N[C@@H](Cc1ccc(O)cc1)C(=O)N[C@H](C(=O)N[C@@H](CO)C(=O)N[C@@H](CCC(=O)O)C(=O)N1CCC[C@H]1C(=O)N[C@@H](COCCOCCOCCN=[N+]=[N-])C(=O)O)[C@@H](C)O [compound 11] (H-D[Phe(4-CH2SO3H)]QVSSPI[Phe(4-CH2SO3H)]DIN[Phe(4-CH2SO3H)]YTSEPS(X1)-OH; N-terminus and C-terminus assumed)
gp120-CD4
  Increase in line width between free and bound peptides, 10δ: 2.4 Hz
  Increase in line width between free and bound peptides, 14δ: 2.8 Hz
  Increase in line width between free and bound peptides, 15δ: 1.9 Hz
  Increase in line width between free and bound peptides, 15ε: 3.2 Hz
Water solubility
  solubility: > 30 mM

Source: publication PMC2650494 (Bioorganic & medicinal chemistry, 2008)
